Experimental data: patent publication US20190153024A1, “NOVEL SALTS AND POLYMORPHS OF SCY-078” (priority 2015, published 2019)
In brackets after ≈: the same amount, converted by molar mass. One block for each compound: values may come before it.

What was measured:
[1] = Dynamic Vapor Sorption (DVS) water uptake; format: physicochemical; conditions: for solid form by XRPD after DVS: after DVS experiment
Method: Dynamic Vapor Sorption (DVS)—The term “DVS” means the procedure described in below. The relative humidity at 25° C. was calibrated against deliquescence point of LiCl, Mg(NO3)2 and KCl.
The DVS of SCY-078 salts were tested according to the above method, using a 10-20 mg sample size. The DVS was measured using a Surface Measurement Systems (SMS) DVS Intrinsic.

[2] = Approximate solubility in solvents at room temperature; format: physicochemical; conditions: 25 °C, thermodynamic from solid
Method: Approximate solubility of SCY-078 salts—The term “approximate solubility” with respect to SCY-078 salts means the procedure described in this paragraph. To conduct each experiment, a sample of a SCY-078 salt (˜2 mg) was added into a 3-mL glass vial. Then a solvent was added step-wise (100 μL per step) into the vials until the solids were dissolved or a total volume of 2 mL was reached.
First, MeOH desolvate (˜2 mg) was added to a 3-mL glass vial. Then the corresponding solvent was added step wise (100 μL) until the solution was visually clear or a total volume of 2 mL was reached.

[3] = Kinetic solubility of trifluoroacetate Types A and B and HCl Type I (alternative procedure: SGF, FaSSIF and FeSSIF alternative media, acetate pH 5.5, phosphate pH 6.0 alternative media)
Method: An alternative media (“FaSSIF alternative media”) was used to study the trifluoroacetate salts (Type A and B) and the HCl Type I salt. More specifically, the media was prepared by weighing 0.17 g of sodium phosphate monobasic (NaH2PO4, anhydrous), 0.021 g of sodium hydroxide, and 0.31 g of sodium chloride into a 50-mL volumetric flask and was dissolve with approximately 48 mL of purified water. The pH was adjusted to exactly 6.5 using 1 M HCl or 1 M NaOH and diluted to volume with purified water. 0.11 g of SIF powder was then added, stirred and sonicated until all the powder was completely dissolved. The solution was equilibrated for 2 hours at RT before use. The solution can be stored at RT for 48 hours or 4° C. for 7 days and should be equilibrated to RT before use
An alternative media (“FeSSIF alternative media”) was used to study the trifluoroacetate salts (Type A and B) and the HCl Type I salt. More specifically, the media was prepared by transferring 0.41 mL of glacial acid and weighing 0.20 g of sodium hydroxide, 0.59 g of sodium chloride into a 50-mL volumetric flask. This was dissolved with approximately 48 mL of purified water. The pH was adjusted to exactly 5.0 using 1 M HCl or 1 M NaOH and diluted to volume with purified water. 0.56 g of SIF powder was added, stirred and sonicated until all the powder is completely dissolved. The solution can be stored at RT for 48 hours or 4° C. for 7 days and should be equilibrated to RT before use.
Acetate Buffer (pH 5.5) Preparation—The acetate buffer (pH 5.5) used for the trifluoroacetate salts (Type A and B) and the HCl Type I salt was prepared by placing 0.60 g sodium acetate (NaC2H3O2.3H2O) in a 100-mL volumetric flask, adding 3 mL of 2 M acetic acid solution, and then adding purified water to volume.
An alternative media (“phosphate (pH 6.0) alternative media”) was used to study the trifluoroacetate salts (Type A and B) and the HCl Type I salt. More specifically, the media was prepared by dissolving 2.72 g of 0.2 M monobasic potassium phosphate (KH2PO4) in purified water, and diluting with purified water t 100 mL. 0.8 g of 0.2 M sodium hydroxide in purified water was diluted with purified water to 100 mL. Then 50 mL of the 0.2 M monobasic potassium phosphate solution was placed in a 200-mL volumetric flask, 5.6 mL of 0.2 M sodium hydroxide solution was added, and then purified water was added to volume.
The trifluoroacetate salts (Type A and B) and the HCl Type I salt were tested using the following alternative procedure. First, 15 mg, 36 mg or 90 mg solid was weighted into a 4-mL plastic tube, and 3 mL of relevant media was added before leaving the suspension on a rolling incubator (25 r/min). For SCF, 90 mg of solid was used. For FaSSIF, acetate buffer (pH 5.5), and phosphate buffer (pH 6.0), 15 mg solid was used. For FeSSIF, 36 mg of solid was used. 1.0 mL aliquot of the suspension was sampled for centrifugation with the supernatant submitted for HPLC and pH measurement and solid for XRPD characterization at 1 hr, 4 hr and/or 24 hrs.
The solubility of trifluoroacetate Type A, Type B and HCl Type I was measured in SGF at ambient temperature. Approximately 90 mg of solid sample was weighted into a 4-mL centrifuge tube, and 3 mL of SGF buffer was added before leaving the suspension on a rolling incubator (25 r/min). 1.0 mL aliquot of the suspension was sampled for centrifugation (10000 rpm, 3 mins) the supernatant was analyzed by HPLC and pH measurement and solid by XRPD characterization at 1 hr, 4 hr and 24 hrs, respectively.
The solubility of trifluoroacetate Type A, Type B and hydrochloride Type I was measured in the FaSSIF alternative media at ambient temperature. Approximately 15 mg of solid sample was weighted into a 4-mL plastic tube, and 3 mL of the media was added before leaving the suspension on a rolling incubator (25 r/min).

[4] = Physical and chemical stability of trifluoroacetate Types A and B and HCl Type I for 1, 2, 4 and 8 weeks; format: physicochemical; conditions: 25° C./60% RH, 40° C./75% RH and 60° C.; 8 weeks; listed as Trifluoroacetate Type B
Method: High Power Liquid Chromatography (HPLC) Method—An Agilent 1260 HPLC with DAD detector was utilized to test solubility or to test purity and stability. […] System suitability was tested by injecting standard solutions five times in each sample sequence, and the relative standard deviation of the peak areas was less than 2%.
Physical and chemical stability evaluation of trifluoroacetate Type A, trifluoroacetate Type B, and HCl Type I was performed at 25° C./60% RH, 40° C./75% RH and 60° C. for 1, 2, 4 and 8 weeks. In the experiments, approximately 20 mg of solid was placed into a 1.5-mL glass vial. The vials were stored under 25° C./60% RH (uncapped), 40° C./75% RH (uncapped) and 60° C. (capped) conditions for 8 weeks. XRPD analysis was then employed to check the crystalline form of the solid, and HPLC was utilized to determine the purity profile at 1, 2, 4 and 8 weeks. […] The solid form change of trifluoroacetate Type A at 2 and 4 weeks was postulated to the air-exposure when the sample was taken out for XRPD characterization.

SMILES: CC(C)[C@@H](C)[C@@]1(C)CC[C@]2(C)[C@H]3CC[C@@H]4[C@@]5(COC[C@]4(C)[C@@H](OC[C@](C)(N)C(C)(C)C)[C@H](n4ncnc4-c4ccncc4)C5)C3=CC[C@@]2(C)[C@@H]1C(=O)O [SCY-078 amorphous freebase]
water uptake (DVS) ([1]; 25° C., 80% RH): ~4.8%
solid form by XRPD after DVS [1]: no form change

solubility ([2]; organic solvent or mixture, 1,4-Dioxane, RT): > 37 mg/mL
solubility ([2]; organic solvent or mixture, 2-MeTHF, RT): > 25 mg/mL
solubility ([2]; organic solvent or mixture, Acetic Acid, RT): > 25 mg/mL
solubility ([2]; organic solvent or mixture, Acetone, RT): 8.3 to 12.5 mg/mL (≈ 11.4 to 17.1 mM)
solubility ([2]; organic solvent or mixture, CHCl3, RT): > 33 mg/mL
solubility ([2]; organic solvent or mixture, DMA, RT): > 40 mg/mL
solubility ([2]; organic solvent or mixture, DMSO, RT): > 32 mg/mL
solubility ([2]; organic solvent or mixture, EtOAc, RT): > 23 mg/mL
solubility ([2]; organic solvent or mixture, EtOH, RT): 2.6 to 3 mg/mL (≈ 3.56 to 4.11 mM)
solubility ([2]; organic solvent or mixture, Heptane, RT): < 2.2 mg/mL
solubility ([2]; organic solvent or mixture, IPA, RT): 7 to 11 mg/mL (≈ 9.59 to 15.1 mM)
solubility ([2]; organic solvent or mixture, MIBK, RT): > 29 mg/mL
solubility ([2]; organic solvent or mixture, MTBE, RT): > 23 mg/mL
solubility ([2]; organic solvent or mixture, MeOH, RT): 5.4 to 6.3 mg/mL (≈ 7.4 to 8.63 mM)
solubility ([2]; organic solvent or mixture, NMP, RT): > 45 mg/mL
solubility ([2]; organic solvent or mixture, THF, RT): > 23 mg/mL
solubility ([2]; organic solvent or mixture, Toluene, RT): 6.8 to 8.5 mg/mL (≈ 9.31 to 11.6 mM)
solubility ([2]; organic solvent or mixture, iPrOAc, RT): 10.5 to 21 mg/mL (≈ 14.4 to 28.8 mM)
solubility ([2]; acetonitrile (ACN), organic solvent or mixture, ACN, RT): 2.6 to 2.9 mg/mL (≈ 3.56 to 3.97 mM)
solubility ([2]; water (H2O), water, H2O, RT): < 1.9 mg/mL
SMILES: CC(C)[C@@H](C)[C@@]1(C)CC[C@]2(C)[C@H]3CC[C@@H]4[C@@]5(COC[C@]4(C)[C@@H](OC[C@](C)(N)C(C)(C)C)[C@H](n4ncnc4-c4ccncc4)C5)C3=CC[C@@]2(C)[C@@H]1C(=O)O [SCY-078, (1S,4aR,6aS,7R,8R,10aR,10bR,12aR,14R,15R)-15-[[(2R)-2-amino-2,3,3-trimethylbutyl]oxy]-8-[(1R)-1,2-dimethylpropyl]-14-[5-(4-pyridinyl)-1H-1,2,4-triazol-1-yl]-1,6,6a,7,8,9,10,10a,10b,11,12,12a-dodecahydro-1,6a,8,10a-tetramethyl-4H-4a-propano-2H -phenanthro[1,2-c]pyran-7-carboxylic acid]

SMILES: CC(C)[C@@H](C)[C@@]1(C)CC[C@]2(C)[C@H]3CC[C@@H]4[C@@]5(COC[C@]4(C)[C@@H](OC[C@](C)(N)C(C)(C)C)[C@H](n4ncnc4-c4ccncc4)C5)C3=CC[C@@]2(C)[C@@H]1C(=O)O.O=C(O)C(F)(F)F [SCY-078 Trifluoroacetate Type B]
form change of residual solid in FaSSIF alternative media ([3]; FaSSIF alternative media, ambient temperature, listed as Trifluoroacetate Type B): converted to Type A
form change of residual solid in FeSSIF alternative media ([3]; FeSSIF alternative media, ambient temperature, listed as trifluoroacetate Type B): no form change was observed
form change of residual solid in SGF ([3]; SGF, ambient temperature, listed as Trifluoroacetate Type B): converted to Type A
form change of residual solid in acetate buffer ([3]; acetate buffer pH 5.5, ambient temperature, listed as trifluoroacetate Type B): converted to Type A
form change of residual solid in phosphate (pH 6.0) alternative media ([3]; phosphate (pH 6.0) alternative media, ambient temperature, listed as trifluoroacetate Type B): converted to Type A at 24 hrs
physical and chemical stability [4]: chemically stable, however, physically unstable
water uptake (DVS) ([1]; 25° C./80% RH): 3.4 wt %
solid form by XRPD after DVS [1]: converted to Type A
